Measurements taken from patent US9662322B2 (TEVA PHARMACEUTICAL INDUSTRIES, LTD., priority 2014, dated 2017).

Experiments:
patients with RRMS [1] = conditions: pooled ALLEGRO and BRAVO, all patients, 0.6 mg QD vs PBO; cited from earlier work
patients with RRMS [2] = assay: Post hoc analysis of pooled ALLEGRO and BRAVO trials by baseline EDSS subgroup; format: in vivo, human; conditions: for Annualized Relapse Rate, Ratio: LAQ 0.6 mg vs PBO
Description: The observed effect of LAQ on Confirmed Disability Progression (CDP) is disproportionately larger than would be predicted by the observed LAQ effect on relapse rate reduction.
ALELGRO and BRAVO trials described above enrolled ambulatory patients with RRMS, aged 18-55 years, with EDSS scores ≦5.5. Patients included in the study had • 1. ≧1 relapse in the previous year, or • 2. 2 relapses in the previous 2 years, or • 3. 1 relapse in the previous 1-2 years and ≧1 GdE lesion in the previous year.
Patients were randomized 1:1 to LAQ 0.6 mg or PBO in the ALLEGRO study; in BRAVO patients were randomized 1:1:1 LAQ 0.6 or PBO or weekly interferon β 1a 30 μg.
This post hoc analysis include patients randomized to LAQ 0.6 mg or PBO only. Endpoints include ARR, time to CDP (defined as an increase from baseline in EDSS score of ≧1 point if baseline EDSS is ≦5, or of ≧0.5 point if baseline EDSS is >5), sustained for 3 or 6 months; and MSFC components including the Timed 25-Foot Walk (T25FW) test.
LAQ vs. […] Adjusted mean z-score differences and 95% CIs were evaluated by ANCOVA.
MRI endpoints included brain atrophy measured percent brain volume change (PBVC), and cumulative numbers of gadolinium-enhancing (GdE) and new T2 lesions at months 12 and 24.

[3] = test system: subjects with relapsing remitting multiple sclerosis (RRMS); assay: ALLEGRO (MS-LAQ-301) Phase III trial: relapse endpoints; format: in vivo, human
Description: The primary endpoint of the study was the number of confirmed relapses during the double-blind treatment period, which corresponds to the annualized relapse rate (ARR—number of relapses divided by total exposure of all patients). Secondary endpoints included disability as measured by Expanded Disability Status Scale (EDSS) changes confirmed at 3 months, and cumulative number of gadolinium enhancing (GdE) and new/enlarging T2 MRI lesions. […] Eligible subjects were equally randomized 1:1 into one of the following treatment arms: • 1. […] 21, 2007 (see, page 10, line 5 to page 11, line 3). • 2. Matching placebo for laquinimod arm: one capsule is administered once daily. The primary endpoint was the number of confirmed relapses during the double-blind study period. A relapse was defined as the appearance of one or more new neurological abnormalities or the reappearance of one or more previously observed neurological abnormalities lasting for at least 48 hours and after an improved neurological state for at least 30 days. An event was counted as a relapse if the subject's symptoms were accompanied by observed objective neurological changes consistent with at least one of the following: an increase of at least 0.5 in the EDSS score; an increase of one grade in two or more of the seven functional systems; or an increase of two grades in one functional system. Standardized treatment of relapses was intravenous methylprednisolone 1 g/day for up to five consecutive days based on the treating neurologist's decision. The number of confirmed relapses (and Annualized relapse rate) during the double blind study period. The analysis of the total number of confirmed relapses during the study period is based on baseline adjusted Quasi-Likelihood (over-dispersed) Poisson Regression. Using the Poisson regression with the treatment group as a covariate, the ARR of each group was calculated for the intent-to-treat (ITT) cohort as the total number of confirmed relapses for all patients in each group divided by the total patient years in that group. In addition to the treatment group, the following covariates were included: baseline EDSS score, log of the (prior 2-year number of relapses +1) and country or geographical region.

relapsing MS = conditions: cited from earlier work
[4] = post-hoc, vs placebo, listed as laquinimod

## CCN(C(=O)c1c(O)c2c(Cl)cccc2n(C)c1=O)c1ccccc1 [Laquinimod, laquinimod]
Patients with RRMS [1]
  Reduction in 6-month confirmed disability progression (CDP): 46%
Patients with RRMS [2]; baseline EDSS >3
  T25FW time increase after 24 months (adjusted mean): 1.9 s
Patients with RRMS [2]; baseline EDSS >3.0
  9HPT Change from Baseline to Month 24, Adj. Mean Diff.: −1.590
  Brain Atrophy as defined by PBVC, adjusted mean difference: 0.39
  Cumulative GdE T1 Lesions at Months 12 and 24, Rate Ratio: 0.83
  Cumulative New/Enlarging T2 Lesions at Months 12 and 24, Rate Ratio: 0.75
  Disability as Assessed by MSFC z-Score at Month 24, adjusted mean difference: 0.25
  PASAT Change from Baseline to Month 24, Adj. Mean Diff.: 0.586
  Time to 3-month CDP, Hazard Ratio: 0.60
  Time to 6-month CDP, Hazard Ratio: 0.47
  Annualized Relapse Rate, Ratio: 0.75
Patients with RRMS [2]; baseline EDSS >3 (worsening MS), vs PBO
  Reduction in 6-month CDP: 53%
Patients with RRMS [2]; baseline EDSS >3, vs PBO
  Reduction of 3-month CDP: 40%
  Reduction of ARR: 25%
Patients with RRMS [2]; baseline EDSS >3, vs PBO, 24 months
  Improvement / treatment effect size on the T25FW component: 59%
Patients with RRMS [2]; baseline EDSS >3.0, listed as LAQ
  T25FW Change from Baseline to Month 24, Adj. Mean Diff.: -2.79 s
Patients with RRMS [2]; baseline EDSS >3 with CDP, vs PBO
  T25FW treatment effect among subjects who experienced CDP: 8.6 s
Patients with RRMS [2]; baseline EDSS ≦3
  Treatment differences in T25FW: No treatment differences
Patients with RRMS [2]; baseline EDSS ≦3.0
  9HPT Change from Baseline to Month 24, Adj. Mean Diff.: −1.108
  Brain Atrophy as defined by PBVC, adjusted mean difference: 0.34
  Cumulative GdE T1 Lesions at Months 12 and 24, Rate Ratio: 0.66
  Cumulative New/Enlarging T2 Lesions at Months 12 and 24, Rate Ratio: 0.77
  Disability as Assessed by MSFC z-Score at Month 24, adjusted mean difference: −0.02
  PASAT Change from Baseline to Month 24, Adj. Mean Diff.: 0.302
  T25FW Change from Baseline to Month 24, Adj. Mean Diff.: 0.055 s
  Time to 3-month CDP, Hazard Ratio: 0.69
  Time to 6-month CDP, Hazard Ratio: 0.60
  Annualized Relapse Rate, Ratio: 0.80
[3]; post-hoc
  Relapses requiring hospitalization (annualized rate): 0.071
[3]; post-hoc, vs placebo
  ARR 1st year, Effect: 24% reduction
  ARR by median relapse duration: >34 days, Effect: 1.3% reduction
  ARR by median relapse duration: ≦34 days, Effect: 37% reduction
  ARR for dropouts, Effect: 26% reduction
  ARR, Full recovery, Effect: 13% reduction
  ARR, No recovery, Effect: 24% reduction
  Relapses requiring IV steroids, Effect: 27% reduction
  Relapses requiring hospitalization, Effect: 38% reduction
  Unconfirmed relapses, Effect: 17% reduction
[3]; [4]
  Relapses requiring IV steroids, Effect: 27 % reduction
  Relapses requiring hospitalization, Effect: 38 % reduction
[3]; post-hoc, recovery refers to EDSS before and after attack
  ARR, No recovery: 0.06
[3]; vs placebo
  Annualized rate of relapses requiring hospitalization and/or IV steroids, Effect: 27% reduction
  Relapse-free during study, increase in odds to be relapse free: 55% increase odds to
[3]; vs placebo, listed as laquinimod
  Relapse-free during study, increase in odds to be relapse free: 55%
Relapsing MS
  Development of active MRI lesions: reduce development of active MRI lesions
